This passage reports IC50 results from patent US11702409B2, “Pyrazolyl derivatives useful as anti-cancer agents” (NOVARTIS AG, priority 2019, dated 2023).

pIC50: −log10 of the molar value. Bounds are passed on as bounds.

In this assay the target is KRasG12C (M1-K169, biotinylated on the N-terminus) (Homo sapiens (Human), UniProt P01116, G12C). The experiment in a line: Covalent competition assay (scintillation proximity assay, competition with radiolabeled covalent probe Compound B). The assay is classed as binding. The conditions noted are these: in vitro KRASG12C activity; 10 nM KRasG12C:GDP, 25 nM radio-ligand and 475 nM unlabelled ligand, incubated 2 hours; read-out: Covalent Competition Assay IC50. The method, then: The cells were lysed by 4 passages through an Avestin Emulsiflex at about 20000 psi and insoluble debris removed by centrifugation and filtered through a 0.45 μm Durapore membrane (Millipore). […] The protein in the flow through was subjected to a final polishing step on a HiLoad 16/60 Superdex 200 prep grade size-exclusion column pre-equilibrated with SEC-buffer (20 mM HEPES pH 7.4, 150 mM NaCl, 5 mM MgCl2, 1 μM GDP).
A scintillation proximity assay (SPA) was used to determine the potency of the compounds. This assay measures the ability of the test compound to compete with the radiolabeled covalent probe for binding to and covalently modify KRASG12C.
A serial dilution of the compounds to be tested is mixed with a fixed concentration of the radiolabeled covalent probe before incubation with KRASG12C:GDP as described below.
The reaction was started by addition of KRasG12C (M1-K169, biotinylated on the N-terminus) to the compounds and incubated for 2 hours with continuous agitation allowing for full modification of KRasG12C with probe or test compounds. […] The assay buffer contained 20 mM Tris-HCl pH 7.5 (Invitrogen), 150 mM NaCl (Sigma Aldrich), 0.1 mM MgCl2 (Sigma Aldrich), and 0.01% Tween-20 (Sigma Aldrich).
Evaluation was carried out using assay data analysis software (such as the standard Novartis in-house Helios software application, Novartis Institutes for BioMedical Research, unpublished) using the methods described in Formenko et al., Robust Regression for high-throughput screening.
Evaluation can also be carried out using commercially available software which is designed to derive IC50 values using 4-parameter fits (e.g. GraphPad Prism, XL fit).
Background: In a scintillation proximity assay essentially only radioactivity close to the scintillant gives light.

As for `C=CC(=O)N1CC2(CC(n3nc(-c4ccc5nc(NC)ncc5c4)c(-c4c(Cl)c(C)cc5[nH]ncc45)c3C)C2)C1` (single isomer, unassigned) [Example 40a], the pIC50 (commonly −log10 of the IC50, conventionally taken in molar units) was 7.00.

`C=CC(=O)N1CC2(CC(n3nc(-c4ccc5nc(NC)ncc5c4)c(-c4c(Cl)c(C)cc5[nH]ncc45)c3C)C2)C1` (single isomer, unassigned) [Example 40b]: the pIC50 was < 4.30.

For the molecule `C=CC(=O)N1CC2(CC(n3nc(-c4ccc5nn(CCOC)cc5c4)c(-c4c(Cl)c(C)cc5[nH]ncc45)c3C)C2)C1` (single isomer, unassigned) [Example 41a, 1-(6-{(4M)-4-(5-Chloro-6-methyl-1H-indazol-4-yl)-3-[2-(2-methoxyethyl)-2H-indazol-5-yl]-5-methyl-1H-pyrazol-1-yl}-2-azaspiro[3.3]heptan-2-yl)prop-2-en-1-one], the pIC50 is 7.96.

Regarding `C=CC(=O)N1CC2(CC(n3nc(-c4ccc5nn(CCOC)cc5c4)c(-c4c(Cl)c(C)cc5[nH]ncc45)c3C)C2)C1` (single isomer, unassigned) [Example 41b], the pIC50 is 6.03.

With `C=CC(=O)N1CC2(CC(n3nc(-c4ccc5nn(CC(C)(C)O)cc5c4)c(-c4c(Cl)c(C)cc5[nH]ncc45)c3C)C2)C1` (single isomer, unassigned) [Example 42a, 1-(6-{(4M)-4-(5-Chloro-6-methyl-1H-indazol-4-yl)-3-[2-(2-hydroxy-2-methylpropyl)-2H-indazol-5-yl]-5-methyl-1H-pyrazol-1-yl}-2-azaspiro[3.3]heptan-2-yl)prop-2-en-1-one], the negative logarithm of the IC50 (pIC50) was 7.92.

As to `C=CC(=O)N1CC2(CC(n3nc(-c4ccc5nn(CC(C)(C)O)cc5c4)c(-c4c(Cl)c(C)cc5[nH]ncc45)c3C)C2)C1` (single isomer, unassigned) [Example 42b], the pIC50 was 5.92.

With `C=CC(=O)N1CC2(CC(n3nc(-c4ccc5nn(CCOCCOC)cc5c4)c(-c4c(Cl)c(C)cc5[nH]ncc45)c3C)C2)C1` (single isomer, unassigned) [Example 43a, 1-{6-[(4M)-4-(5-Chloro-6-methyl-1H-indazol-4-yl)-3-{2-[2-(2-methoxyethoxy)ethyl]-2H-indazol-5-yl}-5-methyl-1H-pyrazol-1-yl]-2-azaspiro[3.3]heptan-2-yl}prop-2-en-1-one], the pIC50 was 8.00.

As for `C=CC(=O)N1CC2(CC(n3nc(-c4ccc5nn(CCOCCOC)cc5c4)c(-c4c(Cl)c(C)cc5[nH]ncc45)c3C)C2)C1` (single isomer, unassigned) [Example 43b], the pIC50 is 5.54.

Take `C=CC(=O)N1CC2(CC(n3nc(-c4ccc5c(c4)CCN5CCOC)c(-c4c(Cl)c(C)cc5[nH]ncc45)c3C)C2)C1` (single isomer, unassigned) [Example 44a]: the negative logarithm of the IC50 (pIC50) is 7.72.

Consider `C=CC(=O)N1CC2(CC(n3nc(-c4ccc5c(c4)CCN5CCOC)c(-c4c(Cl)c(C)cc5[nH]ncc45)c3C)C2)C1` (single isomer, unassigned) [Example 44b], for which the pIC50 was < 5.30.

Consider `C=CC(=O)N1CC2(CC(n3nc(-c4ccnn4CC4CC4)c(-c4c(Cl)c(C)cc5[nH]ncc45)c3C)C2)C1` (single isomer, unassigned) [Example 45a, 1-(6-(4-(5-chloro-6-methyl-1H-indazol-4-yl)-2′-(cyclopropylmethyl)-5-methyl-1H,2′H-[3,3′-bipyrazol]-1-yl)-2-azaspiro[3.3]heptan-2-yl)prop-2-en-1-one], for which the pIC50 is 6.63.

`C=CC(=O)N1CC2(CC(n3nc(-c4ccnn4CC4CC4)c(-c4c(Cl)c(C)cc5[nH]ncc45)c3C)C2)C1` (single isomer, unassigned) [Example 45b, 1-(6-(4-(5-chloro-6-methyl-1H-indazol-4-yl)-2′-(cyclopropylmethyl)-5-methyl-1H,2′H-[3,3′-bipyrazol]-1-yl)-2-azaspiro[3.3]heptan-2-yl)prop-2-en-1-one]: the pIC50 is < 4.30.

`C=CC(=O)N1CC2(CC(n3nc(-c4ccccn4)c(-c4c(Cl)c(C)cc5[nH]ncc45)c3C)C2)C1` (single isomer, unassigned) [Example 46a, 1-(6-(4-(5-chloro-6-methyl-1H-indazol-4-yl)-5-methyl-3-(pyridin-2-yl)-1H-pyrazol-1-yl)-2-azaspiro[3.3]heptan-2-yl)prop-2-en-1-one]: the pIC50 is 6.37.

Consider `C=CC(=O)N1CC2(CC(n3nc(-c4ccccn4)c(-c4c(Cl)c(C)cc5[nH]ncc45)c3C)C2)C1` (single isomer, unassigned) [Example 46b, 1-(6-(4-(5-chloro-6-methyl-1H-indazol-4-yl)-5-methyl-3-(pyridin-2-yl)-1H-pyrazol-1-yl)-2-azaspiro[3.3]heptan-2-yl)prop-2-en-1-one], for which the pIC50 is < 4.30.

In the case of `C=CC(=O)N1CC2(CC(n3nc(-c4ccc(CO)cc4)c(-c4c(Cl)c(C)cc5[nH]ncc45)c3C)C2)C1` (single isomer, unassigned) [Example 47a, 1-(6-{(4M)-4-(5-Chloro-6-methyl-1H-indazol-4-yl)-3-[4-(hydroxymethyl)phenyl]-5-methyl-1H-pyrazol-1-yl}-2-azaspiro[3.3]heptan-2-yl)prop-2-en-1-one], the pIC50 is 7.37.

As to `C=CC(=O)N1CC2(CC(n3nc(-c4ccc(CO)cc4)c(-c4c(Cl)c(C)cc5[nH]ncc45)c3C)C2)C1` (single isomer, unassigned) [Example 47b, 1-(6-(4-(5-chloro-6-methyl-1H-indazol-4-yl)-3-(4-(hydroxymethyl)phenyl)-5-methyl-1H-pyrazol-1-yl)-2-azaspiro[3.3]heptan-2-yl)prop-2-en-1-one], the pIC50 was 4.63.

Consider `C=CC(=O)N1CC2(CC(n3nc(-c4ccncc4C)c(-c4c(Cl)c(C)cc5[nH]ncc45)c3C)C2)C1` (single isomer, unassigned) [Example 49a, 1-(6-(4-(5-chloro-6-methyl-1H-indazol-4-yl)-5-methyl-3-(3-methylpyridin-4-yl)-1H-pyrazol-1-yl)-2-azaspiro[3.3]heptan-2-yl)prop-2-en-1-one], for which the pIC50 was 6.64.

As for `C=CC(=O)N1CC2(CC(n3nc(-c4ccncc4C)c(-c4c(Cl)c(C)cc5[nH]ncc45)c3C)C2)C1` (single isomer, unassigned) [Example 49b, 1-(6-(4-(5-chloro-6-methyl-1H-indazol-4-yl)-5-methyl-3-(3-methylpyridin-4-yl)-1H-pyrazol-1-yl)-2-azaspiro[3.3]heptan-2-yl)prop-2-en-1-one], the negative logarithm of the IC50 (pIC50) was 5.27.

For `C=CC(=O)N1CC2(CC(n3nc(-c4ccc(N5CCS(=O)(=O)CC5)cc4)c(-c4c(Cl)c(C)cc5[nH]ncc45)c3C)C2)C1` (single isomer, unassigned) [Example 50a, 1-(6-(4-(5-chloro-6-methyl-1H-indazol-4-yl)-3-(4-(1,1-dioxidothiomorpholino)phenyl)-5-methyl-1H-pyrazol-1-yl)-2-azaspiro[3.3]heptan-2-yl)prop-2-en-1-one], the pIC50 was 7.46.

For the molecule `C=CC(=O)N1CC2(CC(n3nc(-c4ccc(N5CCS(=O)(=O)CC5)cc4)c(-c4c(Cl)c(C)cc5[nH]ncc45)c3C)C2)C1` (single isomer, unassigned) [Example 50b, 1-(6-(4-(5-chloro-6-methyl-1H-indazol-4-yl)-3-(4-(1,1-dioxidothiomorpholino)phenyl)-5-methyl-1H-pyrazol-1-yl)-2-azaspiro[3.3]heptan-2-yl)prop-2-en-1-one], the negative logarithm of the IC50 (pIC50) was 5.37.

Take `C=CC(=O)N1CC2(CC(n3nc(-c4cscn4)c(-c4c(Cl)c(C)cc5[nH]ncc45)c3C)C2)C1` (single isomer, unassigned) [Example 51a, 1-(6-(4-(5-chloro-6-methyl-1H-indazol-4-yl)-5-methyl-3-(thiazol-4-yl)-1H-pyrazol-1-yl)-2-azaspiro[3.3]heptan-2-yl)prop-2-en-1-one]: the pIC50 is 6.33.

On to `C=CC(=O)N1CC2(CC(n3nc(-c4cscn4)c(-c4c(Cl)c(C)cc5[nH]ncc45)c3C)C2)C1` (single isomer, unassigned) [Example 51b, 1-(6-(4-(5-chloro-6-methyl-1H-indazol-4-yl)-5-methyl-3-(thiazol-4-yl)-1H-pyrazol-1-yl)-2-azaspiro[3.3]heptan-2-yl)prop-2-en-1-one], for which the pIC50 is 4.44.

`C=CC(=O)N1CC2(CC(n3nc(-c4ccc5c(c4)C(=O)OC5)c(-c4c(Cl)c(C)cc5[nH]ncc45)c3C)C2)C1` (single isomer, unassigned) [Example 54a]: the negative-log IC50 (pIC50) is 6.44.

For the molecule `C=CC(=O)N1CC2(CC(n3nc(-c4ccc5c(c4)C(=O)OC5)c(-c4c(Cl)c(C)cc5[nH]ncc45)c3C)C2)C1` (single isomer, unassigned) [Example 54b], the pIC50 was < 4.30.

Take `C=CC(=O)N1CC2(CC(n3nc(-c4ccc(O)cc4)c(-c4c(Cl)c(C)cc5[nH]ncc45)c3C)C2)C1` (single isomer, unassigned) [Example 57a]: the pIC50 is 7.48.

`C=CC(=O)N1CC2(CC(n3nc(-c4ccc(O)cc4)c(-c4c(Cl)c(C)cc5[nH]ncc45)c3C)C2)C1` (single isomer, unassigned) [Example 57b]: the pIC50 was 5.49.
